Results on 18 compounds are retold here after patent publication US20230116602A1, “MCL1 INHIBITORS AND USES THEREOF” (California Institute of Technology, priority 2019, published 2023).

One assay addresses MCL1 (Homo sapiens, UniProt Q07820). As to the kind of experiment: MCL1 affinity assay (competition binding, qPCR readout). As to conditions: recombinant MCL1, 11-point 3-fold dilution series. As to the method:
Recombinant MCL1, BCL2 and BCXL proteins were prepared in either an E. coli host derived from the BL21 strain or in HEK-293 cells. The recombinant proteins were subsequently tagged with DNA for qPCR detection. Streptavidin-coated magnetic beads were treated for 30 minutes at room temperature with the respective biotinylated peptide ligands for each recombinant protein to generate affinity resins for the assays. The liganded beads were blocked with excess biotin and washed with blocking buffer (SeaBlock (Pierce), 1% BSA, 0.05% Tween 20, 1 mM DTT) to remove unbound ligand and to reduce nonspecific binding. Binding reactions were assembled by combining recombinant protein, liganded affinity beads, and test compounds in 1× binding buffer (20% SeaBlock, 0.17×PBS, 0.05% Tween 20, 6 mM DTT). Test compounds were prepared as 111X stocks in 100% DMSO. The compounds were then diluted directly into the assays such that the final concentration of DMSO was 0.9%. The assay plates were incubated at room temperature with shaking for 1 hour and the affinity beads were washed with wash buffer (1×PBS, 0.05% Tween 20). The beads were then re-suspended in elution buffer (1×PBS, 0.05% Tween 20, 0.5 μM non-biotinylated affinity ligand) and incubated at room temperature with shaking for 30 minutes. The recombinant protein concentration in the eluates was measured by qPCR. Kds were determined using an 11-point 3-fold compound dilution series with three DMSO control points.

For assay [1], the system named is drug-sensitive cell lines of Table 3. As to the kind of experiment: Cell line growth retardation assay, sensitive cohort. It is filed as cell-based, Human. As to conditions: for IC50: Homo sapiens, 144 h, arithmetic mean of IC50s over the sensitive cohort of Table 3, 6 days growth, read-out: AvgSen IC50; for Fold Diff: average IC50 of resistant cohort divided by average IC50 of sensitive cohort. As to the method:
(§1) Cells were seeded at densities of 1,000-5,000 cells per well in 48-well tissue culture plates. After a 24 h rest period, cells were treated with compound at 10 μM, 1 μM, […], 0.08 μM, 0.016 μM, and 0.0032 μM. A group of cells were treated with the vehicle in which the compound was prepared and served as a control. Prior to treatment, cells were counted and this count was used as a baseline for the calculation of growth inhibition. The cells were grown in the presence of compounds for 6 days and were counted on day 6. All cell counting was performed using a Synentec Cellavista plate imager. Growth inhibition was calculated as a ratio of cell population doublings in the presence of compound versus the absence of compound. […] IC50 values for each compound were calculated by fitting curves to data points from each dose-response assay using the Proc NLIN function in SAS for Windows version 9.2 (SAS Institute, Inc.).
(§2) Human cancer cell lines were grouped as “sensitive” or “resistant” to MCL1 inhibition based on whether their growth was retarded by AMG-176 (i.e., (1′S,11R,12S,14E,16S,16aR,18aR)-6′-Chloro-3′,4′,12,13,16,16a,17,18,18a,19-decahydro-16-methoxy-11,12-dimethyl-,Spiro[5,7-etheno-1H,11H-cyclobut[i][1,4]oxazepino[3,4-f][1,2,7]thiadiazacyclohexadecine-2(3H),1′(2′H)-naphthalen]-8(9H)-one 10,10-dioxide) or MIK665 (i.e., (R)-2-((5-(3-chloro-2-methyl-4-(2-(4-methylpiperazin-1-yl)ethoxy)phenyl)-6-(4-fluorophenyl)thieno[2,3-d]pyrimidin-4-yl)oxy)-3-(2-((2-(2-methoxyphenyl)pyrimidin-4-yl)methoxy)phenyl)propanoic acid) (data not shown; see Table 3). These sensitive and resistant cohorts were interrogated for response to each compound, and IC50S were calculated for each cell line using the same technique described above. Average IC50S for the sensitive (“AvgSen IC50”) and resistant (“AvgRes IC50”) cohorts were calculated as arithmetic means of the group, and fold differences (“Fold Diff”) between the resistant and sensitive cohorts were calculated by diving the average IC50 for the resistant cohort by the average IC50 for the sensitive cohort. “A” represents an IC50 of 1 μM or less, “B” represents an IC50 of greater than 1 μM to 5 μM, “C” represents an IC50 of greater than 5 μM, “+” represents a fold difference of 10 or more, and “−” represents a fold difference less than 10.

For assay [2], the system named is drug-resistant cell lines of Table 3. As to the kind of experiment: Cell line growth retardation assay, resistant cohort. It is filed as cell-based, Human. As to conditions: Homo sapiens, 144 h; arithmetic mean of IC50s over the resistant cohort of Table 3, 6 days growth; read-out: AvgRes IC50. As for the experimental part:
as §1, §2

The structures appear in SMILES notation.

Sequence of MCL1 (Q07820 whole entry): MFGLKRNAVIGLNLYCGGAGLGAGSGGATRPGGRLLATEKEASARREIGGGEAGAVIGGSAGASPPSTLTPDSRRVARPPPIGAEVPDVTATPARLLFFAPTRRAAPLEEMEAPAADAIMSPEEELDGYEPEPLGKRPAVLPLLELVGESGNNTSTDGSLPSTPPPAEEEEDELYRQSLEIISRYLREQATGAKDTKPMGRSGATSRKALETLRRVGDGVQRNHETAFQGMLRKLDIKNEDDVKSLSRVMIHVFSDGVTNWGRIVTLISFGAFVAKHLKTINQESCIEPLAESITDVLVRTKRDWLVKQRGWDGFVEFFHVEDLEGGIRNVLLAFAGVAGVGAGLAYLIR

As for `COc1cccc(-c2ncc3snc(O[C@H](Cc4ccccc4OCc4ccnc(N5CCCC(F)(F)C5)n4)C(=O)O)c3c2-c2ccc(OCCN3CCN(C)CC3)c(Cl)c2C)c1` (atropisomer, axis not shown) [Compound 61], the dissociation constant Kd (in general, the equilibrium constant for the complex coming apart) at MCL1 lay within 101 to 500 nM. Also, the IC50 (commonly the concentration that inhibits the measured activity by half) was at most 1000 nM in assay [1] and over 5000 nM in assay [2]. Besides, the “Fold Diff” value in assay [1] is “+ (“+” represents a fold difference of 10 or more)”.
In the same order, the values of `Cc1cc(-c2nccc(COc3ccccc3C[C@@H](Oc3nsc4cnc(C5CCC5)c(-c5ccc(OCCN6CCN(C)CC6)c(Cl)c5C)c34)C(=O)O)n2)ccc1S(=O)(=O)N1CCCC1` (atropisomer, axis not shown) [Compound 115] are 101 to 500 nM, 1000 to 5000 nM, over 5000 nM and “− (“−” represents a fold difference less than 10)”.
For `CCn1ccc(-c2ncc3snc(O[C@H](Cc4ccccc4OCc4ccnc(-c5ccccc5OC)n4)C(=O)O)c3c2-c2ccc(OCCN3CCN(C)CC3)c(Cl)c2C)n1` (atropisomer, axis not shown) [Compound 76], the Kd at MCL1 is 501 to 1500 nM. The IC50 in assay [1] and in assay [2] was over 5000 nM throughout. For the same compound, in assay [1], the “Fold Diff” value is reported as “− (“−” represents a fold difference less than 10)”.
On to `COc1cccc(-c2ncc3snc(O[C@H](Cc4ccccc4OCc4ccnc(-c5ccccc5OC)n4)C(=O)O)c3c2-c2ccc(OCC3CCCN3C)c(Cl)c2C)c1` (stereo partly shown) [Compound 48], for which, in assay [1], the IC50 is at most 1000 nM and the “Fold Diff” value is “+ (“+” represents a fold difference of 10 or more)”. The IC50 in assay [2] is over 5000 nM.
With `COc1ccccc1-c1nccc(COc2ccccc2C[C@@H](Oc2nsc3cnc(-c4ccn(CC(C)C)n4)c(-c4ccc(OCCN5CCN(C)CC5)c(Cl)c4C)c23)C(=O)O)n1` (atropisomer, axis not shown) [Compound 38], the Kd at MCL1 is at most 100 nM. Besides, the concentration for half-maximal inhibition (IC50) in assay [1] was at most 1000 nM; in assay [2], over 5000 nM. In addition, the “Fold Diff” value in assay [1] is given as “+ (“+” represents a fold difference of 10 or more)”.
`COc1ccccc1-c1nccc(COc2ccccc2C[C@@H](Oc2nsc3cnc(-c4cccc(C#N)c4)c(-c4ccc(OCCN5CCN(C)CC5)c(Cl)c4C)c23)C(=O)O)n1` (atropisomer, axis not shown) [Compound 80]: the equilibrium dissociation constant (Kd) on MCL1 was at most 100 nM. Also, in assay [1], the IC50 is at most 1000 nM and the “Fold Diff” value is listed as “+ (“+” represents a fold difference of 10 or more)”. For the same compound, the IC50 in assay [2] was over 5000 nM.
Regarding `COc1ccccc1-c1nccc(COc2ccccc2C[C@@H](Oc2nsc3cnc(-c4ccc(F)cc4)c(-c4ccc(OCCC5CCN(C)CC5)c(Cl)c4C)c23)C(=O)O)n1` (atropisomer, axis not shown) [Compound 81], the Kd at MCL1 is at most 100 nM. In assay [1], the IC50 was 1000 to 5000 nM and the “Fold Diff” value is “− (“−” represents a fold difference less than 10)”. The 50% inhibitory concentration (IC50) in assay [2] is over 5000 nM.
In the same order, the values of `Cc1cc(C#N)ccc1-c1nccc(COc2ccccc2C[C@@H](Oc2nsc3cnc(C4CCC4)c(-c4ccc(OCCN5CCN(C)CC5)c(Cl)c4C)c23)C(=O)O)n1` (atropisomer, axis not shown) [Compound 116] are at most 100 nM, at most 1000 nM, “+ (“+” represents a fold difference of 10 or more)” and over 5000 nM.
With `COc1cc(-c2ncc3snc(O[C@H](Cc4ccccc4OCc4ccnc(-c5ccccc5OC)n4)C(=O)O)c3c2-c2ccc(OCCN3CCN(C)CC3)c(Cl)c2C)ccn1` (atropisomer, axis not shown) [Compound 33], the Kd at MCL1 is at most 100 nM. In assay [1], the IC50 is at most 1000 nM and the “Fold Diff” value is listed as “+ (“+” represents a fold difference of 10 or more)”. The IC50 in assay [2] is over 5000 nM.
`COc1ccc(F)cc1-c1nccc(COc2ccccc2C[C@@H](Oc2nsc3cnc(C4CCC4)c(-c4ccc(OCCN5CCN(C)CC5)c(Cl)c4C)c23)C(=O)O)n1` (atropisomer, axis not shown) [Compound 73]: on MCL1, the Kd was at most 100 nM. The IC50 in assay [1] is at most 1000 nM; in assay [2], over 5000 nM. The “Fold Diff” value in assay [1] was “+ (“+” represents a fold difference of 10 or more)”.
With `COc1ccccc1-c1nccc(COc2ccccc2C[C@@H](Oc2nsc3cnc(-c4ccc(F)c(Cl)c4)c(-c4ccc(OCCN5CCN(C)CC5)c(Cl)c4C)c23)C(=O)O)n1` (atropisomer, axis not shown) [Compound 88], the Kd on MCL1 was at most 100 nM. Further, the half-inhibitory concentration (IC50) in assay [1] was at most 1000 nM; in assay [2], over 5000 nM. The “Fold Diff” value in assay [1] is “+ (“+” represents a fold difference of 10 or more)”.
On the same counts, the results for `Cc1c(-c2c(C3CCC3)ncc3snc(O[C@H](Cc4ccccc4OCc4ccnc(C5CCC5)n4)C(=O)O)c23)ccc(OCCN2CCN(C)CC2)c1Cl` (atropisomer, axis not shown) [Compound 104] are 101 to 500 nM, 1000 to 5000 nM, over 5000 nM and “− (“−” represents a fold difference less than 10)”.
Take `CCOC(=O)[C@@H](Cc1ccccc1OCc1ccnc(-c2ccccc2OC)n1)Oc1nsc2cnc(C3CCC3)c(-c3ccc(OCCN4CCN(C)CC4)c(Cl)c3C)c12` [Compound 103]: the Kd on MCL1 is over 1500 nM.
On the same count and under the same terms, the result for `Cc1c(-c2c(-c3ccc4sccc4c3)ncc3snc(O[C@H](Cc4ccccc4OCc4ccnn4CC(F)(F)F)C(=O)O)c23)ccc(OCCN2CCN(C)CC2)c1Cl` (atropisomer, axis not shown) [Compound 8] reads over 1500 nM.
With `Cc1c(-c2c(C3CCC3)ncc3snc(O[C@H](Cc4ccccc4OCc4ccnc(-c5ccc(C(=O)N6CCC6)cc5)n4)C(=O)O)c23)ccc(OCCN2CCN(C)CC2)c1Cl` (atropisomer, axis not shown) [Compound 122], in assay [1], the IC50 is at most 1000 nM and the “Fold Diff” value is on record as “+ (“+” represents a fold difference of 10 or more)”. The IC50 in assay [2] was over 5000 nM.
Take `Cc1c(-c2c(C3CCC3)ncc3snc(O[C@H](Cc4ccccc4OCc4ccnc(-c5cccc(-c6ccn(C)n6)c5)n4)C(=O)O)c23)ccc(OCCN2CCN(C)CC2)c1Cl` (atropisomer, axis not shown) [Compound 121]: the IC50 in assay [1] was at most 1000 nM; in assay [2], over 5000 nM. In addition, the “Fold Diff” value in assay [1] is reported as “+ (“+” represents a fold difference of 10 or more)”.
Regarding `COc1ccccc1-c1nccc(COc2ccccc2C[C@@H](Oc2nsc3cnc(C4CCC4)c(-c4ccc(OCCN5CCN(C)CC5)c(Cl)c4C)c23)C(=O)CCc2oc(=O)oc2C)n1` (atropisomer, axis not shown) [Compound 120], in assay [1], the IC50 was at most 1000 nM and the “Fold Diff” value is recorded as “+ (“+” represents a fold difference of 10 or more)”. In addition, the 50% inhibitory concentration (IC50) in assay [2] is over 5000 nM.
With `Cc1c(-c2c(C3CCC3)ncc3snc(O[C@H](Cc4ccccc4OCc4ccnc(-c5ccc(N6CCOCC6)cc5)n4)C(=O)O)c23)ccc(OCCN2CCN(C)CC2)c1Cl` (atropisomer, axis not shown) [Compound 123], the 50% inhibitory concentration (IC50) in assay [1] was at most 1000 nM; in assay [2], over 5000 nM. In addition, the “Fold Diff” value in assay [1] is on record as “+ (“+” represents a fold difference of 10 or more)”.
